Assay results taken from article PMC8086144, “A novel peptide antagonist of the human growth hormone receptor” (The Journal of Biological Chemistry, 2021).

Assays:
hGHR = biological target: T1, hGHR (Homo sapiens, UniProt P10912); assay: hGH-mediated pSTAT5 in SK-MEL-28 cells, ELISA; type: cell-based; conditions: ELISA (pSTAT5A Y694/pSTAT5B Y699), SK-MEL-28 cells co-treated with hGH and 200 nM peptide, Equation 2, triplicate; for inhibition at 0.2 µM: SK-MEL-28, 20 min; for % pSTAT5 inhibition: 20 min
T1 construct: previously reported to express high levels of endogenous hGHR; host or cells: SK-MEL-28, MALME-3M, IM9
T1 sequence (P10912 19-638): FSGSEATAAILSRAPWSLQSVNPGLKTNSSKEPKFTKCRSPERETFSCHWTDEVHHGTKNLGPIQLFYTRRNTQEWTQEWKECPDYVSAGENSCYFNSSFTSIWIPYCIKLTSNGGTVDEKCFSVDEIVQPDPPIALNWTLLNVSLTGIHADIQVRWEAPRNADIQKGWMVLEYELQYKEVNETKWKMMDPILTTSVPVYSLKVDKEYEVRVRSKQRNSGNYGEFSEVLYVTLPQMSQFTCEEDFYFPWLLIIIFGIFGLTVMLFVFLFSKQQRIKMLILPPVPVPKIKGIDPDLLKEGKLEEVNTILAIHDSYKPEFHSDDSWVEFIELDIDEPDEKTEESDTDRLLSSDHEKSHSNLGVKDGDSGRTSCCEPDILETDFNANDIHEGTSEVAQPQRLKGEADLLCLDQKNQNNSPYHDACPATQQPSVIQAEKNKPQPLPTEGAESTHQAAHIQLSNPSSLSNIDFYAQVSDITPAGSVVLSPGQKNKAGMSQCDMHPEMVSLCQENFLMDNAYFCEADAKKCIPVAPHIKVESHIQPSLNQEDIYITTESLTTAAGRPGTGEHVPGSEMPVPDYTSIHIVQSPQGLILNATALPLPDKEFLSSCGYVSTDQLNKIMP
Experimental: SK-MEL-28, MALME-3M, and T84 cells were grown and maintained in Eagle's Minimal Essential Medium. IM9 and L cells were grown in RPMI-1640 media and Dulbecco's modified Eagle's medium, respectively. All growth media was supplemented with 10% fetal bovine serum and 1× antibiotic-antimycotic […] solution. Cells were grown at 37 °C under a 5% CO2 atmosphere in a humidified incubator, and growth media was replaced every 48 h during incubation. No hGH was present in or added to the growth media unless specifically indicated. Between 12 to 16 h after seeding, adherent cells (SK-MEL-28, MALME-3M, T84, L cells) were switched to serum-free growth media (no GH) and starved for 4 h before the addition of hGH, bGH (L cells), hPRL (MALME-3M and T84 cells), or buffer at the concentrations noted. Cells were then allowed to incubate for an additional 20 min before being harvested. For suspended cell treatments, IM9 cells were pelleted by centrifugation at 140g for 5 min at room temperature. The supernatant was then removed by aspiration, and the cells were resuspended in serum-free media. The cells were then starved for 4 h at 37 °C under a 5% CO2 atmosphere in a humidified incubator and subsequently treated with hGH, S1H, or both at the indicated concentrations for 20 min before harvesting by centrifugation.
Following treatment, the cells were harvested at the indicated time points, and the total protein was extracted. To affect protein extraction, the treatment media was removed by aspiration, and the cells were washed twice with ice-cold PBS. Following washing, total protein was extracted from the cells using RIPA buffer (100 μl/million cells) supplemented with 1.5× Halt protease and phosphatase inhibitor cocktail. Briefly, chilled RIPA buffer was added to the cells, and the lysis reaction was allowed to incubate for 5 min at 4 °C. Adherent cells were harvested for lysis using a sterile cell scraper. The resultant cell suspensions were sonicated on ice for 60 s with ON (2-s)/OFF (1-s) pulses at 2% power. The cell lysate was then cleared by centrifugation at 8000g for 10 min at 4 °C. Following centrifugation, the supernatant was collected and stored at −80 °C until further use. Sample protein concentration was quantified using a Bradford assay with bovine serum albumin as the protein standard. Absorbance at 595 nm was measured using a Spectramax 250 multimode plate reader (Molecular Devices) and processed using SoftmaxPro v4.7.1 software.
Intracellular pSTAT5A (Y694) and pSTAT5B (Y699) levels were quantified from clarified protein samples using an InstantOne ELISA kit (Thermo Fisher) according to the manufacturer’s instructions. Briefly, 50 μl of protein sample (1 mg/ml) were added to wells containing 50 μl antibody cocktail in a 96-well plate and incubated at room temperature for 2 h with shaking (300 rpm). Following incubation, the wells were washed, and the bound antibodies were detected by adding detection regent and incubating the plate for 1 h at room temperature with shaking (300 rpm). Following incubation, stop reagent was added, and the absorbance was read at 450 nm using a UV-VIS spectrophotometer (Molecular Devices, model M2). All experiments were performed in triplicate. Percent pSTAT5 inhibition was calculated from background-subtracted pSTAT5 levels using Equation 2:(2) %inhibition=100×(pSTAT5hGH−pSTAT5PI)/pSTAT5hGH where pSTAT5hGH is the fold-induction of pSTAT5 upon treatment with hGH alone and pSTAT5PI is the fold-induction of pSTAT5 upon co-treatment with hGH and peptide inhibitor.

[1] = Wavelength-dependent CD spectropolarimetry (helical propensity); type: physicochemical; conditions: 25 °C; for % α-helix - TFE / % α-helix + TFE: calculated from MRE at 222 nm (Equation 1); for % α-helix - TFE / [θ]222 - TFE (mean residue ellipticity at 222 nm): 20 μM peptide in PBS, no TFE; for [θ]222 - TFE (mean residue ellipticity at 222 nm) / [θ]222 + TFE (mean residue ellipticity at 222 nm): far-UV CD, background-subtracted average of four scans, in deg·cm2/dmol (unit assumed); for % α-helix + TFE / [θ]222 + TFE (mean residue ellipticity at 222 nm): 20 μM peptide in PBS with 30% (v/v) TFE
Experimental: The solution-phase structure of each peptide was evaluated by wavelength-dependent CD spectropolarimetry. For analysis, stock peptides were diluted to a final concentration of 20 μM in PBS supplemented with or without 30% (v/v) TFE. All peptide solutions were allowed to equilibrate for 10 min at 25 °C before analysis. Far-UV wavelength scans were performed on a Jasco J-715 CD spectropolarimeter from 255 nm to 195 nm at 25 °C. Final spectra were generated from a background subtracted (buffer only) average of four scans. Data were processed using J-700 Software v1.5 (Jasco) and KaleidaGraph v4.5. Percent helicity was calculated from the mean residue ellipticity at 222 nm using Equation 1:(1) %helical content=100×([θ]222/(−39,000(1−2.57/n))) where [θ]222 is the mean residue ellipticity at 222 nm and n is the total number of peptide bonds ([86]).

[2] = Stability of hGH and pegvisomant in human serum (Western blot); type: in vitro ADME; conditions: RPMI with 25% (v/v) heat-inactivated human AB serum, 37 °C, 25 μg/ml protein, SDS-PAGE/Western blot densitometry, average of three experiments
Experimental: (§1) The samples were then incubated at 95 °C for 5 min before being cooled on ice and stored at −80 °C. […] Following separation, the proteins were transferred to polyvinylidine difluoride membranes and subjected to Western blot analysis (vide infra). The fraction of intact protein was quantified by measuring the integrated density of each band contained within regions of the gel corresponding to “intact” or “degraded” proteins. […] These reactions were allowed to incubate at 37 °C for up to 8 h, with samples removed at selected timepoints for analysis. Following incubation, the samples were either mixed with 5× Laemmli loading buffer and subjected to SDS-PAGE for Western blot analysis (Fig. S5) or directly injected onto a C18 reversed-phase column for analysis by HPLC as described above for the S1H peptide (Fig. S4).

[3] = biological target: T2, trypsin (bovine pancreas) (Bos taurus, UniProt P00760); assay: Trypsin degradation of hGH and pegvisomant (HPLC and Western blot); type: in vitro ADME; conditions: 4 μg/ml trypsin in digestion buffer pH 7.8, 37 °C, up to 8 h, 25 μg/ml protein
T2 construct: purchased Sigma-Aldrich; host or cells: bovine pancreas
T2 sequence (P00760 24-246): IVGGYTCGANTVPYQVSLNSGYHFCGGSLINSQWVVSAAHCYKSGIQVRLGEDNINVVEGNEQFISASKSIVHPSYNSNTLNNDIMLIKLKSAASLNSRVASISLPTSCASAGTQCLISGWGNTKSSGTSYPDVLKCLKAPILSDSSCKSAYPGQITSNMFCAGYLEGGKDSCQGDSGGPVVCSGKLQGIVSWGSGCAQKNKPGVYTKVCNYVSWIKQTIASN
Experimental: as §1

inhibition at 0.2 µM (hGHR) [%] | % α-helix - TFE [1] [%] | [θ]222 - TFE (mean residue ellipticity at 222 nm) [1] | % α-helix + TFE [1] [%] | [θ]222 + TFE (mean residue ellipticity at 222 nm) [1] | Substance | % pSTAT5 inhibition (hGHR) | protein remaining intact after 48 h in human serum [2] [%] | time to full degradation by trypsin [3] [h]
33.4 | – | – | – | – | Ac-YIPKAQKYSFLQNPQT-NH2 [S1H (E40A)] | – | – | –
75.1 | 7.0 | -2,300 | – | – | Ac-YIPKEQKYSFAQNPQT-NH2 [S1H (L46A)] | comparable to WT S1H | – | –
51.7 | 2.4 | -800 | 24.4 | -8,100 | Ac-YIPKEQAYSFLQNPQT-NH2 [S1H (K42A)] | reduced inhibitory effects compared with WT S1H | – | –
72.3 | 15.7 | -5,200 | 63.5 | -21,100 | Ac-YIPKEQKYAFLQNPQT-NH2 [S1H (S44A)] | comparable to WT S1H | – | –
37.4 | 8.3 | -2,700 | 25.4 | -8,400 | Ac-YIPKEAKYSFLQNPQT-NH2 [S1H (Q41A)] | reduced inhibitory effects compared with WT S1H | – | –
52.5 | 11.1 | -3,700 | 21.4 | -7,100 | Ac-YIPKEQKYSALQNPQT-NH2 [S1H (F45A)] | reduced inhibitory effects compared with WT S1H | – | –
88.5 | – | – | – | – | Ac-YIPAEQKYSFLQNPQT-NH2 [S1H (K39A)] | – | – | –
89.1 | 6.7 | -2,200 | 12.2 | -4,100 | Ac-YIPKEQKYSFLQAPQT-NH2 [S1H (N48A)] | – | – | –
66.6 | 11.2 | -3,700 | 68.8 | -22,800 | Ac-YIPKEQKASFLQNPQT-NH2 [S1H (Y43A)] | comparable to WT S1H | – | –
30.1 | 8.2 | -2,700 | 86.3 | – | Ac-YIPKEQKYSFLANPQT-NH2 [S1H (Q47A)] | – | – | –
– | – | – | – | – | hGH: recombinant human growth hormone, 191-amino acid peptide hormone (22 kDa) | – | > 92 | 8
